Tested on: CAP-M8-specific CD8^+ effector T-cell line
Assay type: cell-based, murine

Substance: TNF-α
- increase in peptide-specific proliferation over unmanipulated DC: 28%

From US6969609B1 (priority 1998, dated 2005)
